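Following 48 hours of exposure in 96-well plates, responses at five concentrations were used to interpolate endpoints linearly. GI50 = concentration required for 50% inhibition of growth. At the TGI there is no net growth.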
Experiments:
Experiment in all cases: NCI anticancer screen, dose series, 48 h
[1] = system: COLO 205 colon
[2] = system: HL-60(TB) leukemia
[3] = system: OVCAR-5 ovarian
[4] = system: SF-539 CNS
[5] = system: SK-MEL-28 melanoma
[6] = system: SN12C renal
[7] = system: SNB-75 CNS
[8] = system: CCRF-CEM leukemia
[9] = system: MDA-MB-435
[10] = system: PC-3 prostate

Structure (SMILES): O=C(O)c1ccc(O)c(N=Nc2cc(S(=O)(=O)O)c3ccccc3c2O)c1
- TGI [1]: > 100 µM
- TGI [2]: > 100 µM
- TGI [3]: > 100 µM
- TGI [4]: > 10 µM
- TGI [5]: > 100 µM
- TGI [6]: > 100 µM
- TGI [7]: > 100 µM

Structure (SMILES): Cc1c(C(=O)CC(=O)C(=O)Nc2ccc(Cl)c(Cl)c2)[n+](=O)c2ccccc2n1[O-]
- TGI [8]: 43 µM
- TGI [1]: 36.1 µM
- TGI [2]: 47.4 µM
- TGI [3]: 86.4 µM
- TGI [4]: 57.5 µM
- TGI [5]: > 100 µM
- TGI [6]: 55.4 µM
- TGI [7]: 48.9 µM

Structure (SMILES): Nc1ncnc(NC2C=C(CO)C(O)C2O)c1[N+](=O)[O-] (configuration not stated)
- TGI [8]: > 100 µM
- TGI [1]: > 100 µM
- TGI [2]: > 100 µM
- TGI [3]: > 100 µM
- TGI [4]: > 100 µM
- TGI [5]: > 100 µM
- TGI [6]: > 100 µM
- TGI [7]: > 100 µM

Structure (SMILES): CC(C)NCC(O)COC(=O)c1cccs1 (configuration not stated)
- TGI [8]: > 100 µM
- TGI [1]: > 100 µM
- TGI [2]: > 100 µM
- TGI [3]: > 100 µM
- TGI [5]: > 100 µM
- TGI [6]: > 100 µM
- TGI [7]: > 100 µM

Structure (SMILES): ClC1CCC2OOC1O2 (configuration not stated)
- TGI [8]: > 100 µM
- TGI [1]: > 100 µM
- TGI [2]: > 100 µM
- TGI [3]: > 100 µM
- TGI [4]: > 100 µM
- TGI [5]: > 100 µM
- TGI [6]: > 100 µM
- TGI [7]: > 100 µM

Structure (SMILES): N/C(=N\N=C\c1cccs1)NO
- TGI [8]: > 100 µM
- TGI [1]: > 100 µM
- TGI [2]: > 100 µM
- TGI [3]: > 100 µM
- TGI [4]: > 100 µM
- TGI [5]: > 100 µM
- TGI [6]: > 100 µM
- TGI [7]: > 100 µM

Structure (SMILES): NC(CNO)C(=O)O (configuration not stated)
- TGI [1]: > 100 µM
- TGI [2]: 21.7 µM
- TGI [9]: > 100 µM
- TGI [3]: > 100 µM
- TGI [10]: > 100 µM
- TGI [4]: > 100 µM
- TGI [5]: > 100 µM
- TGI [6]: > 100 µM
- TGI [7]: > 100 µM

Structure (SMILES): CCc1ccccc1NC(=O)CCc1n[nH]c(=S)o1
- TGI [8]: > 100 µM
- TGI [1]: > 100 µM
- TGI [2]: > 100 µM
- TGI [3]: > 100 µM
- TGI [4]: > 100 µM
- TGI [5]: > 100 µM
- TGI [6]: > 100 µM
- TGI [7]: > 100 µM

Structure (SMILES): COC(=O)C(C(=O)C(=O)Nc1ccccc1C(C)=O)c1nc2ccc(Cl)cc2[nH]c1=O (configuration not stated)
- TGI [8]: > 100 µM
- TGI [1]: > 100 µM
- TGI [2]: > 100 µM
- TGI [3]: > 100 µM
- TGI [4]: > 100 µM
- TGI [5]: > 100 µM
- TGI [6]: > 100 µM
- TGI [7]: > 100 µM

Structure (SMILES): CN(C)C(=O)/N=c1\ss/c(=N\C(=S)N(C)C)n1-c1ccccc1
- TGI [8]: > 48.8 µM
- GI50 [1]: 0.306 µM
- TGI [1]: > 100 µM
- GI50 [2]: 6.59 µM
- TGI [2]: 44.8 µM
- TGI [3]: > 100 µM
- TGI [4]: > 78.4 µM
- TGI [5]: > 56.6 µM
- TGI [6]: > 100 µM
- TGI [7]: 71.1 µM

Structure (SMILES): CC1(C)OC(C(N)=O)=C(C(N)=O)O1
- TGI [8]: > 100 µM
- TGI [1]: > 100 µM
- TGI [2]: > 100 µM
- TGI [3]: > 100 µM
- TGI [4]: > 100 µM
- TGI [5]: > 100 µM
- TGI [6]: > 100 µM
- TGI [7]: > 100 µM

Structure (SMILES): COc1cc(-c2cc(=O)c3ccccc3o2)ccc1N
- TGI [8]: > 100 µM
- TGI [1]: > 100 µM
- TGI [2]: 71.5 µM
- TGI [3]: > 100 µM
- TGI [4]: > 100 µM
- TGI [5]: > 100 µM
- TGI [6]: > 100 µM
- TGI [7]: 83.2 µM

Structure (SMILES): CCC(C)OC(=O)C1C2CCC(O2)C1C(=O)O (configuration not stated)
- TGI [8]: > 100 µM
- TGI [1]: > 60.1 µM
- TGI [2]: > 100 µM
- TGI [3]: > 100 µM
- TGI [4]: > 100 µM
- TGI [5]: > 100 µM
- TGI [6]: > 100 µM
- TGI [7]: > 100 µM

Structure (SMILES): O=C(/C=C\c1cccc2ccccc12)c1cccs1
- TGI [8]: 7.83 µM
- TGI [1]: 29.3 µM
- TGI [2]: 15.6 µM
- TGI [3]: 32.8 µM
- TGI [4]: 34.9 µM
- TGI [5]: 28 µM
- TGI [6]: 31.5 µM
- TGI [7]: 61.3 µM

Structure (SMILES): COC(=O)C(C(=O)C(=O)NC1=C(Cl)C(=O)c2ccccc2C1=O)c1csc(-n2nc(-c3ccccc3)cc2-c2ccccc2)n1 (configuration not stated)
- TGI [8]: > 100 µM
- TGI [1]: > 100 µM
- TGI [2]: > 100 µM
- TGI [3]: > 100 µM
- TGI [6]: > 100 µM
- TGI [7]: 9.4 µM

Structure (SMILES): Cc1ccccc1NC(=O)C(=O)C(c1cnc2ccc([N+](=O)[O-])cc2n1)[N+](=O)[O-] (configuration not stated)
- TGI [8]: > 100 µM
- TGI [1]: > 100 µM
- TGI [2]: > 100 µM
- TGI [3]: > 100 µM
- TGI [4]: > 100 µM
- TGI [5]: > 100 µM
- TGI [6]: > 100 µM
- TGI [7]: > 100 µM

Structure (SMILES): CN1CCC[C@@H]1CCO[C@](C)(c1ccccc1)c1ccc(Cl)cc1
- GI50 [1]: 1.75 µM
- TGI [1]: 3.56 µM
- GI50 [2]: 4.03 µM
- TGI [2]: 18 µM
- GI50 [9]: 2.46 µM
- TGI [9]: 8.19 µM
- GI50 [3]: 5.34 µM
- TGI [3]: 18.6 µM
- GI50 [10]: 4.58 µM
- TGI [10]: 17 µM
- GI50 [4]: 9.94 µM
- TGI [4]: 23.7 µM
- GI50 [5]: 2 µM
- TGI [5]: 4.36 µM
- GI50 [6]: 4.54 µM
- TGI [6]: 18.7 µM
- GI50 [7]: 2.29 µM
- TGI [7]: 12.7 µM

Structure (SMILES): C#CCOCn1cnc2c(=S)nc[nH]c21
- TGI [8]: > 100 µM
- TGI [1]: > 100 µM
- TGI [2]: > 100 µM
- TGI [3]: > 100 µM
- TGI [5]: > 100 µM
- TGI [6]: > 100 µM
- TGI [7]: 98.9 µM
